Results published in patent US20130109682A1, “CYCLIC ETHER COMPOUNDS USEFUL AS KINASE INHIBITORS” (NOVARTIS AG, priority 2010, published 2013).

What was measured:
[1] = molecular target: cABLT315 kinase (Homo sapiens, UniProt P00519); experiment: cABLT315 kinase Caliper assay; format: biochemical
Description: PKCα and cABLT315 Kinase Caliper Assays
Assays were performed in 384 well microtiter plates. Each assay plate contained 8-point serial dilutions for test compounds, as well as two 16-point serial dilutions of staurosporine as reference compound, plus 16 high- and 16 low controls. Liquid handling and incubation steps were done on a Thermo CatX workstation equipped with a Innovadyne Nanodrop Express. Between pipetting steps, tips were cleaned in wash cycles using wash buffer. Plates with terminated kinase reactions were transferred to the Caliper LC3000 workstations for reading. Phosphorylated and unphosphorylated peptides were separated using the Caliper microfluidic mobilitishift technology and Kinase activities were calculated from the amounts of formed phospho-peptide.
Kinase reactions were prepared in 384 low volume plates by the following sequence:
1. 0.05 μA Compound (start with 1.8 mM in 90% DMSO/10% H2O)
2. +4.5 μl 2× peptide/ATP solution
3. +4.5 μl 2× enzyme solution
4. Incubate for 60 min at 30° C.
4. +16 μl stop/run buffer
Independent of the kinase, all reactions were done performed in 50 mM HEPES, pH 7.5, 1 mM DTT, 0.02% Tween20, 0.02% BSA, and 0.6% DMSO. For cABLT315 assay specific details were as follows: [cABLT315 kinase]=2.4 nM, [ATP]=10 uM, [peptide]=2 uM, [Mg]=10 mM. For PKCα, assay specific details were as follows: [kinase]=0.012 nM, [ATP]=17 uM, [peptide]=1 uM, [Mg]=7 mM, [Ca]=0.2 mM.

[2] = molecular target: T1, hERG (Homo sapiens, UniProt Q12809); experiment: hERG binding assay ([3H] dofetilide displacement); conditions: dofetilide displacement; read-out: HERGdof IC50
T1 construct: host or cells: crude membrane suspension
T1 sequence (Q12809 whole entry): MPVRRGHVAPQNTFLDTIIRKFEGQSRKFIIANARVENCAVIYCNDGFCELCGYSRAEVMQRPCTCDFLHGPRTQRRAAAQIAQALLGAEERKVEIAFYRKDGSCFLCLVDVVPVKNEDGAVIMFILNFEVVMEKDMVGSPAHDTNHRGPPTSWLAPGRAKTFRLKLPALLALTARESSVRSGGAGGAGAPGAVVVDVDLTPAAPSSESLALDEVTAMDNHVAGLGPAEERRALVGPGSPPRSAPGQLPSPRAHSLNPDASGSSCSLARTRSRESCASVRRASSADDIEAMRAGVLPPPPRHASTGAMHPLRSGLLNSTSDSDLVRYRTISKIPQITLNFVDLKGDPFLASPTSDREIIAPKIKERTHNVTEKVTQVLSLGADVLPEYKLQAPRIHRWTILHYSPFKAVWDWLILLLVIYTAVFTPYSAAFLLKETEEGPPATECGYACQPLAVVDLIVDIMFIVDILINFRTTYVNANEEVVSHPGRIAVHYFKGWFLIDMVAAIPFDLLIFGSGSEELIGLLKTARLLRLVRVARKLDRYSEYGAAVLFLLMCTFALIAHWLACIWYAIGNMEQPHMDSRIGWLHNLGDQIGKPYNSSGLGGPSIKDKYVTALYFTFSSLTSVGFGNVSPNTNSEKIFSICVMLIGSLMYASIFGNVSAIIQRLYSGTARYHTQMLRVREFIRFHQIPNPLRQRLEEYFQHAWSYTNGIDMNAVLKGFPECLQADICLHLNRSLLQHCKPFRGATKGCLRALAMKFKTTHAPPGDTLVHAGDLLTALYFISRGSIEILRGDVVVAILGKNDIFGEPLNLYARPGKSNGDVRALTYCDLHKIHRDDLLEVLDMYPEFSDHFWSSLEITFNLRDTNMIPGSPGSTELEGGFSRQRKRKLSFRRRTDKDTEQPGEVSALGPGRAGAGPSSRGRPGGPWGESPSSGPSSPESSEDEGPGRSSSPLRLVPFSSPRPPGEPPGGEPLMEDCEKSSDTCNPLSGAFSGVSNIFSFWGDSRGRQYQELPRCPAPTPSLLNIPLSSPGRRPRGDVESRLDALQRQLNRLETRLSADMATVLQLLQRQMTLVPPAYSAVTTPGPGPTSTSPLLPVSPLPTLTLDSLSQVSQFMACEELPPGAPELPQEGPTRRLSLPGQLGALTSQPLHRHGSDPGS
In short: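 Displacement of 2.5 nM [3H]dofetilide from crude hERG membranes (ca. 15 μg protein) by filtration binding, 90 min at room temperature, 0.5% DMSO final. Non-specific binding defined with 25 μM terfenadine; compounds run as 9-point duplicate curves from 30 μM to 3 nM.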

SMILES	IC50 [1]	IC50 [2]
C[C@H]1O[C@@H](c2ccncc2NC(=O)c2nc(-c3ccccc3)cnc2N)[C@H](F)[C@@H](O)[C@]1(C)O [Example 58, 3-amino-N-(4-((2S,3R,4S,5S,6R)-3-fluoro-4,5-dihydroxy-5,6-dimethyltetrahydro-2H-pyran-2-yl)pyridin-3-yl)-6-phenylpyrazine-2-carboxamide]	0.66 µM	> 30 µM
C[C@@H]1O[C@H](c2ccncc2NC(=O)c2nc(-c3ccccc3)cnc2N)C[C@H](O)[C@@]1(C)O [Example 86, 3-amino-N-(4-((2S,4S,5R,6S)-4,5-dihydroxy-5,6-dimethyltetrahydro-2H-pyran-2-yl)pyridin-3-yl)-6-phenylpyrazine-2-carboxamide]	0.7 µM	25 µM
C[C@H]1O[C@@H](c2ccncc2NC(=O)c2nc(-c3ccccc3)ncc2N)C[C@@H](O)[C@]1(C)O [Example 32, 5-amino-N-(4-((2R,4R,5S,6R)-4,5-dihydroxy-5,6-dimethyltetrahydro-2H-pyran-2-yl)pyridin-3-yl)-2-phenylpyrimidine-4-carboxamide]	9 µM	> 30 µM
CC[C@H]1O[C@@H](c2ccncc2NC(=O)c2nc(-c3ccccc3)ncc2N)C[C@@H](O)[C@@H]1O [Example 39, 5-amino-N-(4-((2R,4R,5S,6R)-6-ethyl-4,5-dihydroxytetrahydro-2H-pyran-2-yl)pyridin-3-yl)-2-phenylpyrimidine-4-carboxamide]	8 µM	> 30 µM

The remaining compounds from weak to strong by IC50 [1], led by results:

IC50 [1]	SMILES	IC50 [2]
0.65 µM	C[C@@H]1O[C@H](c2ccncc2NC(=O)c2nc(-c3ccccc3)cnc2N)[C@@H](F)[C@H](O)[C@@]1(C)O [Example 63, 3-amino-N-(4-((2R,3S,4R,5R,6S)-3-fluoro-4,5-dihydroxy-5,6-dimethyltetrahydro-2H-pyran-2-yl)pyridin-3-yl)-6-phenylpyrazine-2-carboxamide]	> 30 µM
0.086 µM	C[C@H]1O[C@@H](c2ccncc2NC(=O)c2nc(-c3ccccc3)cnc2N)C[C@@H](O)[C@]1(C)O [Example 84, 3-amino-N-(4-((2R,4R,5S,6R)-4,5-dihydroxy-5,6-dimethyltetrahydro-2H-pyran-2-yl)pyridin-3-yl)-6-phenylpyrazine-2-carboxamide]	> 30 µM
0.07 µM	C=C1[C@@H](O)C[C@@H](c2ccncc2NC(=O)c2nc(-c3ccccc3)cnc2N)OC12CC2 [Example 5, 3-amino-N-(4-((5S,7S)-7-hydroxy-8-methylene-4-oxaspiro[2.5]octan-5-yl)pyridin-3-yl)-6-phenylpyrazine-2-carboxamide]	> 30 µM
0.03 µM	Nc1ncc(-c2ccccc2)nc1C(=O)Nc1cnccc1[C@H]1C[C@@H](O)[C@H](O)[C@@H](CCl)O1 [Example 36, 3-amino-N-(4-((2R,4R,5S,6S)-6-(chloromethyl)-4,5-dihydroxytetrahydro-2H-pyran-2-yl)pyridin-3-yl)-6-phenylpyrazine-2-carboxamide]	> 30 µM
